From US8623327B2, “Imaging agents for use in magnetic resonance blood flow/perfusion imaging” (Beth Israel Deaconess Medical Center, Inc., priority 2006, dated 2014)
Where two headings read alike, the source gives them in different places. Values belong to the molecule of their own block, whether it stands above or below them.

How the values were obtained:
[1] = NMR relaxation time (T1, T2) measurement, saturation recovery; format: physicochemical; settings: for median value of T1: 9.6 T
[2] = cited from earlier work
[3] = cited from earlier work; remark: listed apart in the source
[4] = system: alcohol dehydrogenase enzyme; settings: cited from earlier work
[5] = single saturated recovery experiment (FIGS. 2A and 2B)

median value of T1 ([1]; at 400 Mhz): 64 ± 20 s | T1 ([1]; at 400 Mhz, measured in water with oxygen present): > 20 s | T1 [1, 5]: 46±4 | T2 [1, 5]: 0.6±0.02
Compound: [2H]C([2H])([2H])[13C](O)(C([2H])([2H])[2H])C([2H])([2H])[2H]

median value of T1 ([1]; at 400 Mhz): 26 ± 5 s
Compound: [2H][13C]([2H])([2H])C(O)([13C]([2H])([2H])[2H])[13C]([2H])([2H])[2H]

Compound: [3He] [3He]
solubility in blood [2]: not soluble in blood

Compound: [Xe] [Xenon]
relaxation time ([3]; in blood): less than 10 seconds | relaxation time ([3]; in tissue): ≥ 2 s

Compound: CC(C)(C)O [t-butanol, tert-butyl alcohol]
processing by alcohol dehydrogenase enzyme [4]: not processed
